In US11696913B2, “Prolonged ectoparasite-controlling agent for animal” (MITSUI CHEMICALS AGRO, INC., priority 2017, dated 2023) one finds pest or weed control and inhibition in vivo data, which are given here for 3 molecules.

The test system of experiment [1] is Rhipicephalus (Boophilus) microplus. The experiment in a line: In vitro injection test with Rhipicephalus (Boophilus) microplus (BOOPMI Inj). As to conditions: 168 h, laid fertile eggs after 7 days, read-out: acaricidal activity; for pest or weed control at 32 ng: dose 0.032 μg/animal injected; for pest or weed control at 0.00016 mg: dose 0.16 μg/animal injected; for pest or weed control at 0.0008 mg: dose 0.8 μg/animal injected. In short, it runs like this:
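Five engorged adult females each get a 1 μl abdominal injection of compound dissolved and diluted in DMSO. Kept 7 days at 28° C./85% rel. hum.; percent activity rates egg laying and egg fertility (0% all fertile, 100% none laid or infertile).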

Experiment [2] relates to Ctenocephalides felis. The experiment can be described thus: In vitro contact test with fleas. The following applies: read-out: insecticidal activity; for pest or weed control at 0.04 µg/cm2, 0.04 µg/cm2: dose 0.04 μg/cm^2, dead or moribund fleas after 48 h; for pest or weed control at 0.2 µg/cm2, 0.2 µg/cm2: dose 0.2 μg/cm^2, dead or moribund fleas after 48 h; for pest or weed control at 1 µg/cm2, 1 µg/cm2: dose 1 μg/cm^2, dead or moribund fleas after 48 h. In short, it runs like this:
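Activity is the percentage of fleas dead or moribund at 48 h, judged by immobility or uncoordinated movement after tapping. Tubes were coated by evaporating acetone solutions (900 ppm gives 5 μg/cm^2), then held 5-10 adult fleas of both sexes at room temperature and ambient humidity.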

In experiment [3] the test system is Ctenocephalides felis. The experiment can be described thus: Systemic treatment in-vivo test with cat flea on rats. The following applies: Ctenocephalides felis, ip, intraperitoneal injection. The method in brief:
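Rats dosed intraperitoneally per body weight in glycerol formal (up to 25% NMP for poorly soluble compounds). 30 D. variabilis nymphs released on treatment day and weekly, 30 C. felis fleas 24 h later; live attached engorged ticks counted at 48 h (±4 h), live fleas at 24 h, efficacy versus placebo group.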

Experiment [4] concerns Rhipicephalus sanguineus. The experiment can be described thus: In vitro contact test with adult hard ticks (Rhipicephalus sanguineus). As to conditions: read-out: acaricidal activity; for pest or weed control at 1 µg/cm2, 1 µg/cm2: dose 1 μg/cm^2, 48 h. In short, it runs like this:
(§1)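 Acaricidal activity = % ticks dead or moribund after 48 h contact with acetone-deposited compound on vial walls (e.g., 900 ppm solution → 5 μg/cm^2). Ambient conditions for R. sanguineus, 21° C./85% rel. hum. for other species; heat challenge at 45-50° C. separated climbers from moribund ticks.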

In experiment [5] the test system is Ctenocephalides felis. The experiment in a line: Ctenocephalides felis in-vitro feeding test with fleas (CTECFE oral). The following applies: 48 hours, read-out: insecticidal feeding activity; for pest or weed control at 0.8 ppm: dose 0.8 ppm in citrated cattle blood; for pest or weed control at 4 ppm: dose 4 ppm in citrated cattle blood; for pest or weed control at 0.032 ppm: dose 0.032 ppm in citrated cattle blood; for pest or weed control at 0.16 ppm: dose 0.16 ppm in citrated cattle blood. In short, it runs like this: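 Scored as percent fleas killed (0–100%) 48 hours after feeding began. Compound, dissolved in DMSO and diluted into citrated cattle blood, was offered via a parafilm membrane to roughly 20 adult male and female C. felis at about 37° C.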

Experiment [6] relates to Dermacentor variabilis. The experiment can be described thus: In vitro contact test with adult hard ticks (Dermacentor variabilis). As to conditions: read-out: acaricidal activity; for pest or weed control at 0.2 µg/cm2, 0.2 µg/cm2: dose 0.2 μg/cm^2, 48 h; for pest or weed control at 1 µg/cm2, 1 µg/cm2: dose 1 μg/cm^2, 48 h. In short, it runs like this: as §1
Experiment [7] relates to Dermacentor variabilis. The experiment in a line: Systemic treatment in-vivo test with American dog tick nymph on rats. As to conditions: Dermacentor variabilis, ip, intraperitoneal injection. The procedure: Systemic Treatment In-Vivo Test with American Dog Tick Nymph and Cat Flea on Rats
Type of study and overall study design: The method is a randomized non-blinded efficacy study in accordance with European animal welfare requirements. Rats (Rattus norvegicus) were randomized based on pre-treatment flea counts. The efficacy of treatment was determined by comparison of the flea and tick counts of different treatment groups versus the placebo-treated control group. The experimental unit was the individual study animal. Method and route of administration: The compound was applied in a suitable solvent and carrier (more specifically, added to glycerol formal; in case of poorly soluble compounds, a solvent mixture with up to 25% by volume of N-methyl pyrrolidone may be used.) considering the individual body weight as an intraperitoneal injection.
Experimental infestation: On the day of treatment and weekly thereafter, 30 ticks (D. variabilis nymphs) were released onto the back of each rat, and 30 fleas (C. felis) were released onto the back of each rat 24 h later.
Tick and Flea counting: Rats were thoroughly examined and ticks and fleas were manually removed 48 h (±4 h) after tick infestation and 24 h after flea infestation. Live fleas and live attached engorged ticks were counted. In non-evident cases, engorgement status was evaluated by squeezing the tick on a filter paper to find traces of blood as sign for engorgement.

The mark [8] stands for this setting: SD 2, read-out: Geometric mean percent reduction in live flea (Ctenocephalides felis) counts compared to untreated control rats.
Where [9] appears, read: SD 9, read-out: Geometric mean percent reduction in live flea (Ctenocephalides felis) counts compared to untreated control rats.
Where [10] appears, read: SD 16, read-out: Geometric mean percent reduction in live flea (Ctenocephalides felis) counts compared to untreated control rats.
Setting [11] is: SD 23, read-out: Geometric mean percent reduction in live flea (Ctenocephalides felis) counts compared to untreated control rats.
The mark [12] stands for this setting: SD 30, read-out: Geometric mean percent reduction in live flea (Ctenocephalides felis) counts compared to untreated control rats.
Setting [13] is: SD 2, read-out: Geometric mean percent reduction in live tick (Dermacentor variabilis) counts compared to untreated control rats.
Setting [14] is: SD 9, read-out: Geometric mean percent reduction in live tick (Dermacentor variabilis) counts compared to untreated control rats.
[15] abbreviates: SD 16, read-out: Geometric mean percent reduction in live tick (Dermacentor variabilis) counts compared to untreated control rats.
[16] abbreviates: SD 23, read-out: Geometric mean percent reduction in live tick (Dermacentor variabilis) counts compared to untreated control rats.
Setting [17] is: SD 30, read-out: Geometric mean percent reduction in live tick (Dermacentor variabilis) counts compared to untreated control rats.

Where two headings read alike, the source gives them in different places.

Consider `CN(C(=O)c1ccc(F)cc1)c1cccc(C(=O)Nc2c(I)cc(C(F)(C(F)(F)F)C(F)(F)F)cc2C(F)(F)F)c1F` [Compound 24], for which, in experiment [1], the pest or weed control at 32 ng came to 100%, the pest or weed control at 0.00016 mg was 100% and the pest or weed control at 0.0008 mg was determined as 100%. Moreover, in experiment [2], the pest or weed control at 0.04 µg/cm2, 0.04 µg/cm2 worked out at 95%; the pest or weed control at 0.2 µg/cm2, 0.2 µg/cm2 is 95%; the pest or weed control at 1 µg/cm2, 1 µg/cm2 is 95%. Further, in experiment [3] (setting [8]), the inhibition in vivo at 5 mg/kg worked out at 100%. For the same molecule, the inhibition in vivo at 5 mg/kg in experiment [3] (setting [9]) turned out to be 99%. For the same molecule, the inhibition in vivo at 5 mg/kg in experiment [3] (setting [10]) came to 99%. The inhibition in vivo at 5 mg/kg in experiment [3] (setting [11]) came out at 36%. Also, the pest or weed control at 1 µg/cm2, 1 µg/cm2 in experiment [4] amounted to 90%. In experiment [5], the pest or weed control at 0.8 ppm was determined as 95% and the pest or weed control at 4 ppm was 95%.

Turning to `CN(C(=O)c1ccc(F)c(F)c1)c1cccc(C(=O)Nc2c(I)cc(C(F)(C(F)(F)F)C(F)(F)F)cc2C(F)(F)F)c1F` [Compound 51], in experiment [1], the pest or weed control at 32 ng was 100%, the pest or weed control at 0.00016 mg was found to be 100% and the pest or weed control at 0.0008 mg came out at 100%. In experiment [2], the pest or weed control at 0.04 µg/cm2, 0.04 µg/cm2 amounted to 95%; the pest or weed control at 0.2 µg/cm2, 0.2 µg/cm2 worked out at 95%; the pest or weed control at 1 µg/cm2, 1 µg/cm2 was determined as 95%. Also, in experiment [3] (setting [8]), the inhibition in vivo at 2 mg/kg stood at 100% and the inhibition in vivo at 10 mg/kg worked out at 100%. In addition, in experiment [3] (setting [9]), the inhibition in vivo at 2 mg/kg was found to be 96% and the inhibition in vivo at 10 mg/kg is 100%. In experiment [3] (setting [10]), the inhibition in vivo at 2 mg/kg turned out to be 67% and the inhibition in vivo at 10 mg/kg is 98%. Also, in experiment [3] (setting [11]), the inhibition in vivo at 2 mg/kg was determined as 37% and the inhibition in vivo at 10 mg/kg was 90%. Further, the inhibition in vivo at 10 mg/kg in experiment [3] (setting [12]) amounted to 90%. For the same molecule, the pest or weed control at 0.2 µg/cm2, 0.2 µg/cm2 in experiment [4] (dose 0.2 μg/cm^2, 48 h) is 90%. For the same molecule, in experiment [4], the pest or weed control at 1 µg/cm2, 1 µg/cm2 worked out at 90%. In experiment [6], the pest or weed control at 0.2 µg/cm2, 0.2 µg/cm2 stood at 90% and the pest or weed control at 1 µg/cm2, 1 µg/cm2 was determined as 90%. Further, the pest or weed control at 0.0064 ppm in experiment [5] (dose 0.0064 ppm in citrated cattle blood) worked out at 95%. For the same molecule, in experiment [5], the pest or weed control at 0.032 ppm amounted to 95%, the pest or weed control at 0.16 ppm was 95%, the pest or weed control at 0.8 ppm stood at 95% and the pest or weed control at 4 ppm turned out to be 95%.

`CN(C(=O)c1ccc(C(F)(F)F)nc1)c1cccc(C(=O)Nc2c(I)cc(C(F)(C(F)(F)F)C(F)(F)C(F)(F)F)cc2C(F)(F)F)c1F` (stereo not shown) [Compound 119]: the pest or weed control at 32 ng in experiment [1] worked out at 100%. Further, in experiment [1], the pest or weed control at 0.00016 mg stood at 100%. The pest or weed control at 0.0008 mg in experiment [1] turned out to be 100%. Further, the pest or weed control at 0.04 µg/cm2, 0.04 µg/cm2 in experiment [2] worked out at 95%. Also, the pest or weed control at 0.2 µg/cm2, 0.2 µg/cm2 in experiment [2] came to 95%; in experiment [6], 90%. For the same molecule, the pest or weed control at 1 µg/cm2, 1 µg/cm2 amounted to 95% in experiment [2] and 90% in experiment [6]. Also, the inhibition in vivo at 10 mg/kg stood at 100% in experiment [3] (setting [8]); 97% in experiment [3] (setting [9]); 94% in experiment [3] (setting [10]); 62% in experiment [3] (setting [11]); 44% in experiment [3] (setting [12]); 100% in experiment [7] (setting [13]). Also, the inhibition in vivo at 10 mg/kg in experiment [7] (setting [14]) was determined as 100%; in experiment [7] (setting [15]), 100%; in experiment [7] (setting [16]), 89%; in experiment [7] (setting [17]), 61%. The pest or weed control at 0.032 ppm in experiment [5] was 95%. The pest or weed control at 0.16 ppm in experiment [5] came to 95%. In addition, the pest or weed control at 0.8 ppm in experiment [5] amounted to 95%. For the same molecule, the pest or weed control at 4 ppm in experiment [5] worked out at 95%. Besides, the inhibition in vivo at 2 mg/kg in experiment [7] (setting [13]) was 100%; in experiment [7] (setting [14]) it was 96%; in experiment [7] (setting [15]), 63%; in experiment [7] (setting [16]) it was 1%; in experiment [7] (setting [17]), 61%.
